From PMC7251097, “Aspartate/asparagine-β-hydroxylase: a high-throughput mass spectrometric assay for discovery of small molecule inhibitors” (Scientific Reports, 2020)
Values joined by “and” are separate entries in the source; they are usually repeats but may differ in a detail not shown here. Equal entries are not always repeated. Where two headings read alike, the source gives them in different places. Values belong to the molecule of their own block, whether it stands above or below them.

What was measured:
[1] = biological target: T1, His6-AspH315-758 (AspH) (Homo sapiens, UniProt Q12797); assay: Differential scanning fluorimetry (DSF) assay, shift of AspH melting temperature; assay type: binding; settings: 20 μM inhibitor, 2 μM AspH, 50 μM NiCl2, with respect to DMSO controls, n = 2, mean ± SD; for ΔTm at 20 µM: read-out: Tm-shift (ΔTm) of AspH melting temperature [°C]
T1 construct: freshly thawed His6-AspH315-758 was added; made in house; host or cells: E. coli BL21 (DE3), pET-28a(+) vector
T1 sequence (Q12797 315-758): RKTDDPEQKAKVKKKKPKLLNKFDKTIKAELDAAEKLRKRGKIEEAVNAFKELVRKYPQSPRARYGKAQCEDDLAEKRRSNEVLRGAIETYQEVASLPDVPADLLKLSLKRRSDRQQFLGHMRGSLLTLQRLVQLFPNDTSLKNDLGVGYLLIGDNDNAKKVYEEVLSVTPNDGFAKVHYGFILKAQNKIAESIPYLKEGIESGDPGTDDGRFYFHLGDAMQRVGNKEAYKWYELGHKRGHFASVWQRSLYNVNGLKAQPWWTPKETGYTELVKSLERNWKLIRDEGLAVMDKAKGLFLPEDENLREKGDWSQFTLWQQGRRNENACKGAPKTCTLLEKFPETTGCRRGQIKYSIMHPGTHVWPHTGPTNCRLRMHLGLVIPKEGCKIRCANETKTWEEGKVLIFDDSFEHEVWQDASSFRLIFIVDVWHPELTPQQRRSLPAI

[2] = biological target: T2, His6-AspH315–758 (human aspartate/asparagine-β-hydroxylase, AspH) (Homo sapiens, UniProt Q12797); assay: SPE-MS AspH inhibition assay (LOPAC screen at fixed 20 μM and IC50 dose-response), hydroxylation of cyclic peptide hFX-CP101–119; assay type: biochemical
T2 construct: N-Terminally His6-tagged human AspH315–758 (His6-AspH315–758) was produced in E. coli BL21 (DE3) cells; made in house; host or cells: E. coli BL21 (DE3), pET-28a(+) vector
T2 sequence (Q12797 315-758): T1 sequence (Q12797 315-758)

[3] = test system: KDM4A; settings: read-out: IC50 metal ion, KDM4A, cited from earlier work
[4] = test system: KDM4E; settings: read-out: IC50 metal ion, KDM4E, cited from earlier work
[5] = test system: PHD2; settings: read-out: IC50 metal ion, PHD2, cited from earlier work
[6] = biological target: FIH; settings: read-out: IC50 metal ion, FIH [μM] (Ki values are shown), cited from earlier work
[7] = test system: TauD; settings: read-out: IC50 metal ion, TauD; cited from earlier work
[8] = LOPAC Plate 4, compound at 20 uM, substrate conversion
[9] = 50 nM AspH, 2.0 μM Fe(II), Zn(OAc)2, NiSO4, CoCl2, MnCl2, CaCl2 as metal sources, n = 2, mean ± SD, read-out: IC50 metal ion, AspH
[10] = 5 μM Fe(II), Ki values are shown
[11] = 50 nM His6-AspH315–758, 1.0 μM hFX-CP101–119, 3 μM 2OG, 2 μM Fe(II), 50 mM HEPES pH 7.5, 20 °C, mean ± SD, n = 2 (2,4-PDCA n = 10), read-out: IC50
[12] = LOPAC Plate 4, compound at 20 uM
[13] = LOPAC compound at fixed 20 uM, plate 1, normalised to DMSO and 2,4-PDCA controls
[14] = LOPAC compound at fixed 20 uM, substrate conversion, plate 1
[15] = LOPAC compound at 20uM, plate 3, conversion of substrate peptide

ΔTm at 20 µM [1]: 3.5 ± 0.6 °C
Molecule: O=C(O)c1ccnc(C(=O)O)c1 [2,4-PDCA, pyridine-2,4-dicarboxylic acid]

Tm-shift (ΔTm) of AspH melting temperature [°C] [1]: < 0.3 °C | ΔTm at 20 µM [1]: 0.2 ± 0.1 °C | inhibition at 20 µM ([2]; AspH activity, fixed compound concentration 20 μM, initial LOPAC screen, 0.5%v/v DMSO, read-out: Inhibition at 20 µM [%]): 100% | % conversion [2, 8]: 2.30%
Molecule: CCOc1nc2cccc(C(=O)OC(C)OC(=O)OC3CCCCC3)c2n1Cc1ccc(-c2ccccc2-c2nnn[nH]2)cc1 (centres unmarked) [Candesartan cilexetil, reference compound]

Tm-shift (ΔTm) of AspH melting temperature [°C] [1]: 2.8 ± 0.2 °C and ~ 2.8 °C
Molecule: O=C(O)c1ccc(O)c2ncccc12 [IOX1]

IC50 [2, 9]: 5.06 ± 1.02 µM | Reduction of AspH inhibition compared to Zn(II) ([2]; ratio of IC50 values against AspH, Table 2): approximately 100 fold
Molecule: [Cl][Mn][Cl] [Mn(II), MnCl2]
IC50 ([3]; 2 μM KDM4 and 10 μM Fe(II)): 101 µM | IC50 ([4]; 2 μM KDM4 and 10 μM Fe(II)): 224 µM | IC50 ([5]; 2 μM PHD2 and 20 μM Fe(II)): 21 µM | Ki [6, 10]: 10 ± 1 µM

ΔTm at 20 µM [1]: 2.8 ± 0.3 °C | IC50 [2, 11]: 1.09 ± 0.29 µM
Molecule: O=C(O)CNC(=O)C(=O)O [NOG, N-oxalylglycine, reference compound]

Molecule: O=S(=O)([O-])[O-].[Ni+2] [Ni(II), NiSO4]
IC50 [3]: 9.4 µM | IC50 [4]: 15.6 µM | IC50 [7]: 0.6 to 1 µM | IC50 ([2]; read-out: IC50 metal ion, AspH): 0.17 ± 0.08 µM | IC50 [5]: 185 µM | Ki [6]: 4 ± 1 µM

Molecule: Cc1ccc(-n2sc3ccccc3c2=O)cc1 [PBIT, 2-(4-methylphenyl)-1,2-benzisothiazol-3(2 H)-one, reference compound]
Tm-shift (ΔTm) of AspH melting temperature [°C] [1]: -15.2 ± 1.4 °C and ~ −15.2 °C | IC50 [2, 11]: 0.14 ± 0.02 µM

IC50 [2, 9]: ~0.05 µM and 0.05 µM
Molecule: CC(=O)[O-].CC(=O)[O-].[Zn+2] [Zn(II), Zn(OAc)2]
IC50 ([3]; 2 μM KDM4 and 10 μM Fe(II)): 7.8 µM | IC50 ([4]; 2 μM KDM4 and 10 μM Fe(II)): 13 µM | IC50 ([5]; 2 μM PHD2 and 20 μM Fe(II)): 9.3 µM | Ki [6, 10]: 0.5 ± 0.1 µM

Molecule: CoCl2 [Co(II)]
IC50 [3]: 5.7 µM | IC50 [4]: 9.4 µM | IC50 [7]: 1 to 3.5 µM | IC50 ([2]; read-out: IC50 metal ion, AspH): 0.39 ± 0.13 µM | IC50 [5]: 48.3 µM | Ki [6]: 1 ± 0.4 µM

Molecule: Maraviroc
Plate 1 (% conversion) [2]: 50.71% | Plate 1 (% inhibition) [2]: -44.18% | Plate 5 (% conversion) [2]: 49.04% | Plate 5 (% inhibition) [2]: -37.39%

% inhibition [2, 12]: 6.57% | % conversion [2, 8]: 34.23% | Plate 5 (% inhibition) ([2]; plate 5 (Pfitzer), test compounds at fixed 20 μM): 40.35% | Plate 5 (% conversion) ([2]; plate 5 (Pfitzer), test compounds at fixed 20 μM, mean conversion DMSO 32.88): 22.58%
Molecule: PD-184161

Molecule: Phenylbenzene-omega-phosphono-alpha-amino acid
% conversion [2]: 25.21%

Molecule: Picrotoxin
Plate 3 (% conversion) [2]: 36.08%

Plate 1 (% inhibition) [2, 13]: -3.70% | Plate 1 (% conversion) [2, 14]: 37.11%
Molecule: Rhodblock 6

% inhibition [2, 12]: -13.60% | % conversion [2, 8]: 41.11%
Molecule: Ro 8-4304

Plate 1 (% inhibition) [2, 13]: -0.20% | Plate 1 (% conversion) [2, 14]: 35.94%
Molecule: Ro 20-1724

Plate 3 (% conversion) [2, 15]: 30.86%
Molecule: Ro 61-8048

Plate 3 (% conversion) [2, 15]: 39.97%
Molecule: Ro 90-7501

Molecule: trans-(±)-ACPD
Plate 1 (% conversion) [2]: 37.46% | Plate 1 (% inhibition) [2]: -4.72%
